Reference: patent US9586986B2, “Substituted 7-deazapurine ribonucleosides for therapeutic uses” (Institute of Organic Chemistry and Biochemistry ASCR, v.v.i., priority 2014, dated 2017)
Where two headings read alike, the source gives them in different places.

Assays:
Format in all cases: cell-based
[1] = test system: A549; test: Cytostatic/cytotoxic MTT assay, A549; conditions: Homo sapiens, read-out: MTT, IC50 A549
In short: (§1)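 Optical density at 540 nm of SDS-dissolved formazan gives the read-out, with IC50 derived from dose-response curves. Cells (25,000-30,000/well) are treated for 72 h at 37 °C with four-fold compound dilutions, tested in duplicate, then stained with MTT for 1-4 h.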

[2] = test system: CEM-DNR-bulk; test: Cytostatic/cytotoxic MTT assay, CEM-DNR-bulk; conditions: Homo sapiens, 72 h, read-out: MTT, IC50 CEM-DNR-bulk
In short: (§2)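 Human cancer lines, including daunorubicin-resistant CEM-DNR (mrp-1/mdr-1 overexpressing) and paclitaxel-resistant K562-TAX (mdr-1), seeded 25,000-30,000 cells/well, pre-incubated 24 h, then treated in duplicate with four-fold dilutions for 72 h at 37° C, 5% CO2. MTT read-out at 540 nm; IC50 from dose-response curves.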

[3] = test system: MRC-5; test: Cytostatic/cytotoxic MTT assay, MRC-5 fibroblasts; conditions: Homo sapiens, read-out: MTT, IC50 MRC-5
In short: (§3)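 Cells were seeded at 25,000-30,000 per well and pre-incubated 24 h before addition of four-fold compound dilutions in duplicate. After 72 h at 37 °C in 5% CO2, MTT was added for 1-4 h, formazan dissolved in 10% SDS (pH 5.5) overnight, and OD read at 540 nm; IC50 taken from dose-response curves.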

[4] = test system: CCRF-CEM; test: Cytostatic/cytotoxic MTT assay, CCRF-CEM; conditions: Homo sapiens, read-out: MTT, IC50 CCRF-CEM
In short: as §1

[5] = test system: HepG2; test: XTT cytotoxicity assay, HepG2; conditions: Homo sapiens, read-out: XTT, IC50 HepG2
In short: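 HepG2 cells seeded at 10,000/well, compounds added after 24 h and incubated 72 h at 37 °C, 5% CO2. Viability by XTT reduction (1 mg/mL XTT plus electron coupler), absorbance at 495 nm after 2 h; IC50 by non-linear regression.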

[6] = test system: BJ; test: Cytostatic/cytotoxic MTT assay, BJ fibroblasts; conditions: Homo sapiens, 72 h, read-out: MTT, IC50 BJ
In short: as §3

[7] = test system: Huh-7 cells harboring replicon 2A; test: Cytotoxicity in replicon 2A cells; conditions: HCV subtype 2A replicon
Experimental: (§4) Compounds were also tested in Huh-7 cells harboring sub-genomic reporter replicons derived from HCV subtypes 1B and 2A (ref.: Stuyver, L. J.; Whitaker, T.; McBrayer, T. R.; Hernandez-Santiago, B. I.; Lostia, S.; Tharnish, P. M.; Ramesh, M.; Chu, C. K.; Jordan, R.; Shi, J. X.; Rachakonda, S.; Watanabe, K. A.; Otto, M. J.; Schinazi, R. F. Antimicrob. Agents Chemother. 2003, 47, 244-254).

[8] = test system: HCT116; test: Cytostatic/cytotoxic MTT assay, HCT116; conditions: Homo sapiens, read-out: MTT, IC50 HCT116
In short: as §2

[9] = test system: Huh-7 cells harboring replicon 1B; test: Cytotoxicity in replicon 1B cells; conditions: HCV subtype 1B replicon
Experimental: as §4

[10] = MRC5, non-malignant fibroblasts, 72 h

Row | SMILES | IC50 ([1]; A549, 72 h incubation) [µM] | IC50 ([2]; daunorubicin resistant subline) [µM] | IC50 [3, 10] [µM] | IC50 ([4]; 72 h incubation) [µM] | IC50 ([5]; HepG2, 72 h incubation) [µM] | IC50 ([6]; non-malignant fibroblasts) [µM] | CC50 [7] [µM] | IC50 ([8]; HCT-116, 72 h incubation) [µM] | CC50 [9] [µM] | IC50 ([1]; A549, 72 h) [µM] | IC50 [2] [µM] | IC50 ([3]; MRC5, 72 h) [µM] | IC50 ([4]; 72 h) [µM] | IC50 ([5]; HepG2, 72 h) [µM] | IC50 [6] [µM] | IC50 ([8]; HCT-116, 72 h) [µM]
1 | CN(C)c1ncnc2c1c(I)cn2[C@@H]1O[C@H](CO)[C@@H](O)[C@H]1O [Compound 4h, 4-Dimethylamino-5-iodo-7-(β-D-ribofuranosyl)-7H-pyrrolo[2,3-d]pyrimidine] | 0.34 | 0.1 | 91.7 | 1.59 | 13.9 | 45.7 | > 44 | 0.09 | > 44 | – | – | – | – | – | – | –
2 | Cc1ncnc2c1c(-c1cccs1)cn2[C@@H]1O[C@H](CO)[C@@H](O)[C@H]1O [Compound 5c, 4-Methyl-7-(β-D-ribofuranosyl)-5-(thiophen-2-yl)-7H-pyrrolo[2,3-d]pyrimidine] | > 20 | > 20 | > 100 | > 20 | > 15 | > 100 | > 44 | > 20 | > 44 | – | – | – | – | – | – | –
3 | Cc1ncnc2c1c(-c1ccco1)cn2[C@@H]1O[C@H](CO)[C@@H](O)[C@H]1O [Compound 5a, 5-(Furan-2-yl)-4-methyl-7-(β-D-ribofuranosyl)-7H-pyrrolo[2,3-d]pyrimidine] | 0.11 | 0.07 | 0.61 | 0.04 | 0.3 | 0.07 | 43.6 | 0.04 | 6.62 | – | – | – | – | – | – | –
4 | COc1ncnc2c1c(-c1ccco1)cn2[C@@H]1O[C@H](CO)[C@@H](O)[C@H]1O [Compound 1a, 5-(Furan-2-yl)-4-methoxy-7-(β-D-ribofuranosyl)-7H-pyrrolo[2,3-d]pyrimidine] | 0.03 | 0.16 | 1.7 | 0.02 | 0.3 | 0.43 | > 44 | 0.04 | > 44 | – | – | – | – | – | – | –
5 | CNc1ncnc2c1c(-c1ccccc1)cn2[C@@H]1O[C@H](CO)[C@@H](O)[C@H]1O [Compound 3e, 4-Methylamino-5-phenyl-7-(β-D-ribofuranosyl)-7H-pyrrolo[2,3-d]pyrimidine] | > 20 | > 20 | > 100 | > 20 | > 20 | > 100 | > 44 | > 20 | > 44 | – | – | – | – | – | – | –
6 | CSc1ncnc2c1ccn2[C@@H]1O[C@H](CO)[C@@H](O)[C@H]1O [RC2, reference compound] | – | – | – | – | – | – | > 44 | – | > 44 | > 20 | 3.61 | > 100 | > 20 | > 20 | > 100 | > 20
7 | CNc1ncnc2c1c(-c1ccsc1)cn2[C@@H]1O[C@H](CO)[C@@H](O)[C@H]1O [Compound 3d, 4-Methylamino-7-(β-D-ribofuranosyl)-5-(thiophen-3-yl)-7H-pyrrolo[2,3-d]pyrimidine] | > 20 | > 20 | > 100 | > 20 | > 20 | > 100 | > 44 | > 20 | > 44 | – | – | – | – | – | – | –
8 | C#Cc1cn([C@@H]2O[C@H](CO)[C@@H](O)[C@H]2O)c2ncnc(NC)c12 [Compound 3g, 5-Ethynyl-4-methylamino-7-(β-D-ribofuranosyl)-7H-pyrrolo[2,3-d]pyrimidine] | > 20 | 18.5 | > 100 | > 20 | > 15 | 86 | > 44 | > 20 | > 44 | – | – | – | – | – | – | –
9 | COc1ncnc2c1c(I)cn2[C@@H]1O[C@H](CO)[C@@H](O)[C@H]1O [Compound 1h, 5-iodo-4-methoxy-7-(β-D-ribofuranosyl)-7H-pyrrolo[2,3-d]pyrimidine, reference compound] | > 20 | > 20 | 63 | 1.15 | > 20 | 91 | > 44 | > 20 | > 44 | – | – | – | – | – | – | –
10 | C#Cc1cn([C@@H]2O[C@H](CO)[C@@H](O)[C@H]2O)c2ncnc(N(C)C)c12 [Compound 4g, 4-Dimethylamino-5-ethynyl-7-(β-D-ribofuranosyl)-7H-pyrrolo[2,3-d]pyrimidine] | 0.39 | 0.24 | 36.1 | 0.09 | 1.32 | 0.41 | > 44 | 0.18 | > 44 | – | – | – | – | – | – | –
11 | C#Cc1cn([C@@H]2O[C@H](CO)[C@@H](O)[C@H]2O)c2ncnc(SC)c12 [Compound 2g, 5-Ethynyl-4-methylsulfanyl-7-(β-D-ribofuranosyl)-7H-pyrrolo[2,3-d]pyrimidine] | 0.14 | 0.11 | > 100 | > 20 | > 15 | 68.6 | > 44 | 0.03 | > 44 | – | – | – | – | – | – | –
12 | CSc1ncnc2c1c(I)cn2[C@@H]1O[C@H](CO)[C@@H](O)[C@H]1O [Compound 2h, 5-Iodo-4-methylsulfanyl-7-(β-D-ribofuranosyl)-7H-pyrrolo[2,3-d]pyrimidine] | > 20 | > 20 | > 100 | > 20 | > 20 | 86.1 | > 44 | > 20 | > 44 | – | – | – | – | – | – | –
13 | CSc1ncnc2c1c(-c1cc3ccccc3o1)cn2[C@@H]1O[C@H](CO)[C@@H](O)[C@H]1O [Compound 2f, 5-(Benzofuran-2-yl)-4-methylsulfanyl-7-(β-D-ribofuranosyl)-7H-pyrrolo[2,3-d]pyrimidine] | > 20 | > 20 | 70.8 | > 20 | > 20 | 67.2 | > 44 | > 20 | > 44 | – | – | – | – | – | – | –
14 | Cc1ncnc2c1c(-c1ccoc1)cn2[C@@H]1O[C@H](CO)[C@@H](O)[C@H]1O [Compound 5b, 5-(Furan-3-yl)-4-methyl-7-(β-D-ribofuranosyl)-7H-pyrrolo[2,3-d]pyrimidine] | > 20 | > 20 | 98.3 | > 20 | 5.32 | 89.2 | > 44 | > 20 | > 44 | – | – | – | – | – | – | –
15 | Cc1ncnc2c1c(-c1ccsc1)cn2[C@@H]1O[C@H](CO)[C@@H](O)[C@H]1O [Compound 5d, 4-Methyl-7-(β-D-ribofuranosyl)-5-(thiophen-3-yl)-7H-pyrrolo[2,3-d]pyrimidine] | > 20 | 8.56 | > 100 | 11.2 | 4.72 | 96.9 | > 44 | 0.46 | > 44 | – | – | – | – | – | – | –
16 | CNc1ncnc2c1c(-c1cccs1)cn2[C@@H]1O[C@H](CO)[C@@H](O)[C@H]1O [Compound 3c, 4-Methylamino-7-(β-D-ribofuranosyl)-5-(thiophen-2-yl)-7H-pyrrolo[2,3-d]pyrimidine] | > 20 | > 20 | > 100 | > 20 | > 20 | > 100 | > 44 | > 20 | > 44 | – | – | – | – | – | – | –
17 | COc1ncnc2c1c(-c1cccs1)cn2[C@@H]1O[C@H](CO)[C@@H](O)[C@H]1O [Compound 1c, 4-Methoxy-7-(β-D-ribofuranosyl)-5-(thiophen-2-yl)-7H-pyrrolo[2,3-d]pyrimidine] | 4.85 | 12.1 | 43.2 | 0.09 | 13.9 | 62.8 | > 44 | 0.08 | > 44 | – | – | – | – | – | – | –
18 | CN(C)c1ncnc2c1c(-c1ccco1)cn2[C@@H]1O[C@H](CO)[C@@H](O)[C@H]1O [Compound 4a, 4-Dimethylamino-5-(furan-2-yl)-7-(β-D-ribofuranosyl)-7H-pyrrolo[2,3-d]pyrimidine] | 4.6 | 3.14 | > 100 | 2.91 | > 15 | > 100 | > 44 | 0.25 | > 44 | – | – | – | – | – | – | –
